Measurements as given in US20220338473A1, “USE OF BENZYL ALCOHOL AS A HERBICIDE” (INNOVI, priority 2019, published 2022).

What was measured:
Format in all cases: in vivo
Mustard = test: Early post-emergence herbicide activity, visual rating of symptoms; settings: cotyledon stage, average of 5 pots
From the text: The soil is composed of 50% agricultural soil and 50% vermiculite.
Mustard seeds are sown in a Petri dish up to the stage of emergence of the radicle. The pre-germinated seeds are placed 1 cm deep in 8 cm×8 cm pots at a rate of 5 seeds per pot and 5 pots/repetitions per condition (treated plants and control plants).
On appearance of the cotyledons, the treatment is applied using a spraying bench simulating an outdoor treatment.
The spraying volume of 200 L/ha.
An untreated control (water alone) is added.
The cultivation conditions are 15° C. during the night/20° C. during the day with a photoperiod of 14 hours (light intensity of approximately 300 μmol/s/m^2).
A visual rating of the symptoms at 1, 3 and 7 days after treatment is carried out for the treated plants.
Each value is an average value calculated over 5 pots per condition.

Horned pansy = test: Systemic action through contact with the underground parts (saucer, capillary uptake); settings: potted, saucer containing 40 g pure benzyl alcohol, uptake via roots
Procedure: The assays were carried out on potted plants.
Pure benzyl alcohol was used (PanReac AppliChem—ITW Reagents).
Two potted plants (Horned pansy) were each placed in a saucer containing respectively 40 g pure benzyl alcohol or 40 g water (control). By capillary action, the liquids contained in the saucer are absorbed by the earth and come into contact with the roots.
The systemic effectiveness time, the collapsing of the plant, the colour intensity and the diameter of the plant were measured as indicated in Examples 1 and 2.

Grass = test: Preventative herbicide activity by sprinkling of the soil; set-up: key to Plants sprouted despite the preventative treatment: yes: the areas where the plants have sprouted despite the preventative treatment; no: the areas where the preventative treatment made it possible to prevent the sprouting of the identified plants; settings: for Plants sprouted despite the preventative treatment: soil sprinkling
Procedure: Areas identified as each year showing the presence of couch grass, grass, bindweeds and thistles were treated preventatively. […] The results are reported in Table 6 below, in which the note “yes” indicates the areas where the plants have sprouted despite the preventative treatment, and the note “no” indicates the areas where the preventative treatment made it possible to prevent the sprouting of the identified plants.

Dandelion seeds = test: Preventative activity (anti-germination), seeds on agar in Petri dish; settings: 0.35 g sprayed (benzyl alcohol pure, 700 L/Ha; glyphosate diluted at 0.5%)

Question: For OCc1ccccc1 [benzyl alcohol], which “Visual rating of the symptoms (0 = similar to control, 100 = dead plant)” value (shortened to “Visual rating of the symptoms”) (Mustard; 30 L/ha active material, 1 day after treatment) is on record?
Answer: 3

Question: And the “Visual rating of the symptoms” value (Mustard; 30 L/ha active material, 3 days after treatment)?
Answer: 21

Question: And the “Visual rating of the symptoms” value (Mustard; 30 L/ha active material, 7 days after treatment)?
Answer: 81

Question: And the “Visual rating of the symptoms” value (Mustard; 40 L/ha active material, 1 day after treatment)?
Answer: 59

Question: What about the “Visual rating of the symptoms” value (Mustard; 40 L/ha active material, 3 days after treatment) of the same compound?
Answer: 82

Question: And the “Visual rating of the symptoms” value (Mustard; 40 L/ha active material, 7 days after treatment)?
Answer: 93

Question: What about the “Visual rating of the symptoms” value (Mustard; 60 L/ha active material, 1 day after treatment) of the same compound?
Answer: 63

Question: What about the “Visual rating of the symptoms” value (Mustard; 60 L/ha active material, 3 days after treatment) of the same compound?
Answer: 92

Question: And the “Visual rating of the symptoms” value (Mustard; 60 L/ha active material, 7 days after treatment)?
Answer: 100

Question: And the “Collapsing: time to pass from a score of 5 to a score of 1” value (Horned pansy)?
Answer: 72 h

Question: And the “Colour intensity: time to pass from a score of 5 to a score of 1” value (Horned pansy)?
Answer: 48 h

Question: What about the “Diameter of the plant: time to pass from a score of 5 to a score of 1” value (Horned pansy) of the same compound?
Answer: 96 h

Question: And the “Systemic effectiveness time: the whole plant is affected” value (Horned pansy)?
Answer: 48 h

Question: And the “Quantity of benzyl alcohol (sprinkling) that prevents sprouting” value (Grass; preventative soil sprinkling)?
Answer: 120 L/Ha

Question: What about the “Plants sprouted despite the preventative treatment” value (Grass; 50 L/ha pure benzyl alcohol) of the same compound?
Answer: yes

Question: What about the “Plants sprouted despite the preventative treatment” value (Grass; 70 L/Ha pure benzyl alcohol) of the same compound?
Answer: yes

Question: And the “Plants sprouted despite the preventative treatment” value (Grass; 110 L/Ha pure benzyl alcohol)?
Answer: yes

Question: And the “Plants sprouted despite the preventative treatment” value (Grass; 120 L/Ha pure benzyl alcohol)?
Answer: no

Question: And the “Plants sprouted despite the preventative treatment” value (Grass; 130 L/Ha pure benzyl alcohol)?
Answer: no

Question: What about the “Plants sprouted despite the preventative treatment” value (Grass; 150 L/Ha pure benzyl alcohol) of the same compound?
Answer: no

Question: And the “Percentage of germination at 11 days” value (Dandelion seeds)?
Answer: 0%
